According to publication PMC10928712, “High Target Homology Does Not Guarantee Inhibition: Aminothiazoles Emerge as Inhibitors of Plasmodium falciparum” (ACS Infectious Diseases, 2024):
Where “and” joins values, the source holds several entries; their conditions need not be identical. Equal entries are not always repeated.

Tests used:
[1] = test system: P. falciparum 3D7; experiment: Method III growth inhibition assay (HRP2-ELISA, 3 days), 3D7; assay type: cell-based, Plasmodium falciparum
[2] = test system: P. falciparum Dd2; experiment: Method III growth inhibition assay (HRP2-ELISA, 3 days), Dd2; assay type: cell-based, Plasmodium falciparum
[3] = test system: P. falciparum 3D7; experiment: IDP rescue assay, P. falciparum 3D7; assay type: cell-based; conditions: Plasmodium falciparum
Procedure: (§1) Fidock (Columbia University). […] P. falciparum cultures were treated as described in method II. For IDP (Isoprenoids.com) rescue experiments, 125 μM IDP was added to the appropriate wells for the duration of the experiment. The well-described DXR inhibitor FSM was used as a positive control. IC50 values were calculated by nonlinear regression analysis using GraphPad Prism software. All experiments were performed at least in triplicate, and data reported represent the mean ± SD.

[4] = test system: P. falciparum 3D7; experiment: Method II growth-inhibition assay (PicoGreen, 3 days), 3D7; assay type: cell-based; conditions: Plasmodium falciparum; 3D7, method II; read-out: IC50 3D7-II
Source text: (§2) Fidock (Columbia University).

[5] = test system: P. falciparum NF54; experiment: IDP rescue assay, P. falciparum NF54; assay type: cell-based; conditions: Plasmodium falciparum
Procedure: as §1

[6] = test system: P. falciparum NF54; experiment: Method II growth-inhibition assay (PicoGreen, 3 days), NF54; assay type: cell-based; conditions: Plasmodium falciparum; chloroquine-sensitive NF54, method II
Source text: as §2

[7] = test system: Hep G2 cells; experiment: Hep G2 viability assay (counter screen); assay type: cell-based, human; conditions: Homo sapiens, HepG2; at 10 μM
Procedure: HepG2 cells (2 × 10^5 cells per well) were seeded in 24-well, flat-bottomed plates. Culturing of cells, incubations, and OD measurements were performed as described previously with small modifications.[58] 24 h after seeding the cells, the incubation was started by the addition of compounds in a final DMSO concentration of 1%. The metabolic activity of the living cell mass was determined after 48 h. At least three independent measurements were performed for each compound. The IC50 values were determined during logarithmic growth using GraphPad Prism software. All experiments were performed at least in triplicate, and data reported represent the mean ± SD.

[8] = 3D7, method III (HRP2 assay), drc package of R, read-out: IC50 P. falciparum 3D7 (method III)
[9] = table of compounds as SMILES with biological activity, strain not given, values match 3D7 method III, read-out: IC50
[10] = chloroquine-resistant Dd2, method III
[11] = Plasmodium falciparum, 3D7, table of compounds as SMILES with biological activity, strain not given, values match 3D7 method III, read-out: IC50
[12] = Plasmodium falciparum, 3D7, 3D7, method III (HRP2 assay), drc package of R, read-out: IC50 P. falciparum 3D7 (method III)
[13] = Plasmodium falciparum, DD2, chloroquine-resistant Dd2, method III

2′,4′-Dimethyl-N-(4-(trifluoromethyl)phenyl)-[5,5′-bithiazol]-2-amine [compound 41]
IC50 [1, 8]: ~10 µM and 10 µM | IC50 [1, 9]: 9.5 µM | IC50 [2, 10]: 5 µM

4-(2-((4-(Trifluoromethyl)phenyl)amino)thiazol-5-yl)benzene-1,3-diol [compound 38]
IC50 [1, 8]: 22 ± 6 µM | IC50 [1, 9]: 22.1 µM

5-(Pyridin-4-yl)-N-(4-(trifluoromethyl)phenyl)thiazol-2-amine [compound 36]
IC50 [1, 8]: 34 ± 2 µM | IC50 [1, 9]: 34.2 µM

COc1ccc(C(Cc2ccc(Cl)cc2)=NO)cn1 [7E, 2-(4-Chlorophenyl)-1-(6-methoxypyridin-3-yl)ethan-1-one oxime]
IC50 [1, 8]: 44 ± 10 µM | IC50 [1, 11]: 43.6 µM | IC50 [2, 10]: > 55 µM

COc1ccc(C(Cc2ccc(Cl)cc2)=NO)cn1 [7Z, 2-(4-Chlorophenyl)-1-(6-methoxypyridin-3-yl)ethan-1-one oxime]
IC50 [1, 8]: > 111 µM | IC50 [2, 10]: > 111 µM

ON=C(Cc1ccc(Cl)cc1)c1ccc(O)nc1 [8E, 2-(4-Chlorophenyl)-1-(6-hydroxypyridin-3-yl)ethan-1-one oxime]
IC50 [1, 8]: > 111 µM | IC50 [2, 10]: > 111 µM

ON=C(Cc1ccc(Cl)cc1)c1ccc(O)nc1 [8Z, 2-(4-Chlorophenyl)-1-(6-hydroxypyridin-3-yl)ethan-1-one oxime]
IC50 [1, 8]: > 28 µM | IC50 [2, 10]: > 28 µM

O=CN(O)CCCP(=O)(O)O [FSM, fosmidomycin, reference compound]
IC50 ([3]; 3D7, 72 h, + IDP (125 μM)): 37.4 ± 18.2 µM | IC50 ([3]; 3D7, without IDP): 0.9 ± 0.4 µM | IC50 [4]: 0.9 ± 0.2 µM | IC50 ([5]; NF54, 72 h, + IDP (125 μM)): 7.8 ± 0.3 µM | IC50 ([5]; NF54, without IDP): 0.9 ± 0.5 µM | IC50 [6]: 0.7 ± 0.3 µM

COc1ccc(C(Cc2ccc(Cl)cc2)=NO)c(O)c1 [compound 9]
IC50 [1, 12]: 47 ± 15 µM | IC50 [1, 11]: 46.8 µM | IC50 [2, 13]: 24 ± 6 µM

CON=C(Cc1ccc(Cl)cc1)c1ccc(O)cc1O [compound 11, (E)-2-(4-Chlorophenyl)-1-(2,4-dihydroxyphenyl)ethan-1-one o-Methyl Oxime]
IC50 [1, 12]: 28 ± 9 µM | IC50 [2, 13]: 19 ± 3 µM

NN=C(Cc1ccc(Cl)cc1)c1ccc(O)cc1O [compound 12]
IC50 [4]: 46 ± 3 µM | IC50 [1, 12]: 16 µM | IC50 [2, 13]: 14 ± 5 µM | IC50 [6]: 45 ± 7 µM

OCc1cn(Cc2ccc(Cl)c(Cl)c2)c2ncccc12 [compound 14, (1-(3,4-Dichlorobenzyl)-1H-pyrrolo[2,3-b]pyridin-3-yl)methanol]
IC50 [1, 12]: > 111 µM | IC50 [2, 13]: 91 ± 18 µM

OCc1cn(-c2ccc(Cl)c(Cl)c2)c2ccccc12 [compound 15, (1-(3,4-Dichlorophenyl)-1H-indol-3-yl)methanol]
IC50 [1, 12]: > 56 µM | IC50 [1, 11]: 55.5 µM | IC50 [2, 13]: 54 ± 6 µM

COc1cccc2c(CO)cn(Cc3ccc(Cl)c(Cl)c3)c12 [compound 16]
IC50 [1, 12]: > 56 µM | IC50 [1, 11]: 55.5 µM | IC50 [2, 13]: 48 ± 13 µM

N#Cc1ccc2c(CO)cn(Cc3ccc(Cl)c(Cl)c3)c2c1 [compound 17]
IC50 [1, 12]: 44 ± 19 µM | IC50 [1, 11]: 43.8 µM | IC50 [2, 13]: 44 ± 9 µM

OCc1nn(Cc2ccc(Cl)c(Cl)c2)c2ccccc12 [compound 18, (1-(3,4-Dichlorobenzyl)-1H-indazol-3-yl)methanol]
IC50 [1, 12]: 34 µM | IC50 [1, 11]: 33.9 µM | IC50 [2, 13]: 70 ± 21 µM

OCCc1cn(Cc2ccc(Cl)c(Cl)c2)c2ccccc12 [compound 19, 2-(1-(3,4-Dichlorobenzyl)-1H-indol-3-yl)ethan-1-ol]
IC50 [1, 12]: 29 ± 1 µM | IC50 [1, 11]: 28.9 µM | IC50 [2, 13]: 12 ± 3 µM

OCc1cn(Cc2ccc(Cl)cc2)c2ccccc12 [compound 20]
IC50 [1, 12]: 28 ± 14 µM | IC50 [1, 11]: 27.2 µM | IC50 [2, 13]: 22 ± 5 µM

COc1ccc2c(c1)c(CO)cn2Cc1ccc(Cl)c(Cl)c1 [compound 21, (1-(3,4-Dichlorobenzyl)-5-methoxy-1H-indol-3-yl)methanol]
IC50 [1, 12]: 19 ± 1 µM | IC50 [1, 11]: 18.5 µM | IC50 [2, 13]: 54 ± 6 µM

COc1cccc2c1c(CO)cn2Cc1cccc(Cl)c1 [compound 22, (1-(3-Chlorobenzyl)-4-methoxy-1H-indol-3-yl)methanol]
IC50 [1, 12]: 16 ± 3 µM | IC50 [1, 11]: 13.8 µM | IC50 [1, 9]: 15.6 µM | IC50 [2, 13]: 14 ± 4 µM

OCc1cn(Cc2ccc(Cl)c(Cl)c2)c2c(Cl)cccc12 [compound 23, (7-Chloro-1-(3,4-dichlorobenzyl)-1H-indol-3-yl)methanol]
IC50 [1, 8]: 14 ± 1 µM | IC50 [1, 12]: 13 µM | IC50 [2, 13]: 36 ± 16 µM

OCc1cn(Cc2cccc(Cl)c2)c2cccc(F)c12 [compound 24, (1-(3-Chlorobenzyl)-4-fluoro-1H-indol-3-yl)methanol]
IC50 [1, 12]: 12 ± 1 µM | IC50 [2, 13]: 10 ± 1 µM

OCc1cn(Cc2ccccc2)c2cccc(F)c12 [compound 25, (1-Benzyl-4-fluoro-1H-indol-3-yl)methanol]
IC50 [1, 12]: 12 ± 2 µM | IC50 [1, 11]: 11.9 µM | IC50 [2, 13]: 9 µM

Cc1cn(Cc2ccc(Cl)c(Cl)c2)c2ccccc12 [compound 26, 1-(3,4-Dichlorobenzyl)-3-methyl-1H-indole]
IC50 [1, 8]: 10.2 µM | IC50 [1, 12]: ~10 µM | IC50 [2, 13]: 11 ± 5 µM

OCc1cn(Cc2ccc(Cl)c(Cl)c2)c2cc(F)ccc12 [compound 27, (1-(3,4-Dichlorobenzyl)-6-fluoro-1H-indol-3-yl)methanol]
IC50 [1, 8]: 9 ± 2 µM | IC50 [1, 12]: < 10 µM | IC50 [1, 11]: 8.9 µM | IC50 [2, 13]: 10 ± 5 µM

Clc1ccc(Cn2ccc3ccccc32)cc1Cl [compound 28, 1-(3,4-Dichlorobenzyl)-1H-indole]
IC50 [1, 8]: 8.1 µM | IC50 [1, 12]: ~8 µM | IC50 [2, 13]: 18 ± 7 µM

O=[N+]([O-])c1ccc2c(c1)c(CO)cn2Cc1ccc(Cl)c(Cl)c1 [compound 29, (1-(3,4-Dichlorobenzyl)-5-nitro-1H-indol-3-yl)methanol]
IC50 [1, 8]: 7 µM | IC50 [1, 12]: < 10 µM | IC50 [1, 11]: 7.2 µM | IC50 [2, 13]: 4 ± 1 µM

OCc1cn(Cc2ccccc2)c2ccc(Br)cc12 [compound 30, (1-Benzyl-5-bromo-1H-indol-3-yl)methanol]
IC50 [1, 8]: 6 ± 1 µM | IC50 [1, 12]: < 10 µM | IC50 [1, 11]: 6.1 µM | IC50 [2, 13]: 5 ± 3 µM

COc1cccc2c1c(CO)cn2Cc1ccc(Cl)c(Cl)c1 [compound 31, (1-(3,4-Dichlorobenzyl)-4-methoxy-1H-indol-3-yl)methanol]
IC50 [1, 12]: 6 ± 2 µM | IC50 [1, 11]: 5.5 µM | IC50 [2, 13]: 5 ± 2 µM

OCc1cn(Cc2ccc(Cl)c(Cl)c2)c2ccc(F)cc12 [compound 32]
IC50 [1, 8]: 5 ± 1 µM | IC50 [1, 12]: < 10 µM | IC50 [1, 11]: 5.3 µM | IC50 [2, 13]: 8 ± 2 µM

COc1ccc(CNCc2cn(Cc3ccc(Cl)c(Cl)c3)c3ccccc23)c(OC)c1 [compound 34, 1-(1-(3,4-Dichlorobenzyl)-1H-indol-3-yl)-N-(2,4-dimethoxybenzyl)methan-amine]
inhibition at 10 µM [7]: 90% | IC50 [2, 13]: 21 ± 6 µM

Cc1nc(N)sc1-c1csc(Nc2ccccc2C(F)(F)F)n1 [compound 35]
IC50 [1, 12]: 43 ± 2 µM | IC50 [2, 13]: 48 ± 12 µM

Oc1ccc(-c2csc(Nc3cccc(C(F)(F)F)c3)n2)c(O)c1 [compound 37]
IC50 [1, 12]: 23 ± 1 µM | IC50 [2, 13]: 19 ± 2 µM

Cc1ccc(Nc2nc(-c3ccc(O)c(O)c3)cs2)cc1C [compound 42, 4-(2-((3,4-Dimethylphenyl)amino)thiazol-4-yl)benzene-1,2-diol]
IC50 [1, 12]: 4 ± 1 µM | IC50 [1, 11]: 4.4 µM | IC50 [2, 13]: 7 ± 1 µM

Cc1ccc(C)c(Nc2nc(-c3ccccn3)cs2)c1 [compound 43, N-(2,5-Dimethylphenyl)-4-(pyridin-2-yl)thiazol-2-amine]
IC50 [1, 12]: 4 ± 2 µM | IC50 [1, 11]: 3.7 µM | IC50 [2, 13]: 5 ± 1 µM

Cc1nc(N)sc1-c1csc(Nc2cccc(C(F)(F)F)c2)n1 [compound 45]
IC50 [1, 12]: 3 µM | IC50 [1, 11]: 2.5 µM | IC50 [2, 13]: 5 µM

Cc1ccc(Nc2nc(-c3ccccn3)cs2)cc1C [compound 46, N-(3,4-Dimethylphenyl)-4-(pyridin-2-yl)thiazol-2-amine]
IC50 ([3]; 3D7, 72 h, + IDP (125 μM)): 2.8 µM | IC50 ([3]; 3D7, without IDP): 2.3 ± 0.4 µM | IC50 [4]: 2 µM | IC50 [1, 12]: 2 ± 1 µM | IC50 [1, 11]: 1.5 µM | IC50 ([5]; NF54, 72 h, + IDP (125 μM)): 1.2 µM | IC50 ([5]; NF54, without IDP): 2.1 ± 0.8 µM | IC50 [2, 13]: 2 µM | IC50 [6]: 2 ± 1 µM

Cc1nc(N)sc1-c1csc(Nc2ccc(Cl)cn2)n1 [compound 47]
IC50 ([3]; 3D7, 72 h, + IDP (125 μM)): 2.2 µM | IC50 ([3]; 3D7, without IDP): 2 ± 0.7 µM | IC50 [4]: 2 ± 1 µM | IC50 [1, 12]: 1 µM | IC50 ([5]; NF54, 72 h, + IDP (125 μM)): 1.2 µM | IC50 ([5]; NF54, without IDP): 1.6 ± 0.3 µM | IC50 [2, 13]: 2 µM | IC50 [6]: 2 µM

N-(3-Chloro-2-methylphenyl)-5-(pyridin-2-yl)thiazol-2-amine [compound 44]
IC50 [1, 8]: 3 µM | IC50 [1, 9]: 2.8 µM | IC50 [2, 10]: 2 ± 1 µM

N^2-(3-Chloro-2-methylphenyl)-4′-methyl-[5,5′-bithiazole]-2,2′-diamine [compound 40]
IC50 [1, 8]: 16 ± 2 µM | IC50 [1, 9]: 15.9 µM

N^2-(3-Methoxyphenyl)-4′-methyl-[5,5′-bithiazole]-2,2′-diamine [compound 39]
IC50 [1, 8]: 18 µM | IC50 [1, 9]: 17.9 µM
